Assay results taken from patent US20240093236A1, “RAPID HIGH THROUGHPUT SCREENING SYSTEM TO ASSESS POTENTIAL TREATMENTS FOR SPORADIC ALZHEIMER’S DISEASE” (Trustees of Tufts College, priority 2021, published 2024).
“Also recorded” adds a separate entry of the source. Structures can show the parent of a compound that is named as a salt.

Columns and labels:
HSV-1-infected hiNSCs [1] = assay: Latency model of HSV-1 infection in hiNSCs (acute infection followed by antiviral treatment), qPCR; format: cell-based, human; conditions: acute HSV-1 infection 24 hrs followed by antiviral treatment (latency induction)
Description: A) Schematic of timeline of HSV-1 and antiviral treatments to induce latency. Acute infection of hiNSCs with HSV-1 for 24 hrs. followed by antiviral treatment results in similar expression patterns of typical AD markers as described previously (B-D). E) This treatment also results in quantifiable expression of HSV-1 latency associated transcript (LAT).
HSV-1 typically lies latent in the peripheral nervous system indefinitely, and it is only upon reactivation that this virus can exert its detrimental effects such as cold sores and potentially neurodegeneration. Understanding potential triggers of this viral reactivation are crucial in elucidating downstream pathways involved in disease pathogenesis. There are currently few if any suitable in vitro models of HSV-1 latency. Here, we describe a method with which to induce latency of HSV-1 in vitro. […] Induction of latency with valacyclovir was also associated with an increase in glial fibrillary acidic protein (GFAP) expression (FIG. 21D), which is indicative of gliosis.

hiNSCs [2] = assay: VCV alone in the absence of virus on hiNSCs; format: cell-based, human; conditions: 200 μM VCV alone, no virus (data not shown)
Description: (§1) Once added to media, inoculum was allowed to remain in cell cultures for the duration of the experiment to mimic low-level brain infection. For mock infections, an equal volume of control culture medium from uninfected Vero cells was used. All virus work was approved by the Tufts Institutional Biosafety Committee. Valacyclovir (VCV) HCl was reconstituted in dH2O and used at a concentration of 200 μM for all subsequent experiments. VCV was added at day 0 (D0; concurrently with HSV-1 infection) or day 1 (D1; 24 hours after infection).
One of the most commonly used antiviral agents for treating HSV-1 infections is VCV, which specifically targets viral DNA replication in infected cells. We cultured hiNSCs for 4 days before subjecting to either mock or HSV-1 infection (MOI 0.0001). […] We first immunostained against HSV and Aβ (FIG. 4A) to determine any differences in the rate of HSV-1 infection and PLF generation in response to drug treatment.

HSV-1-infected hiNSCs [3] = assay: Aβ+ plaque-like formations (PLFs) in HSV-1-infected hiNSCs, immunostaining; format: cell-based, human; conditions: 200 μM VCV, MOI 0.0001, HCl
Description: (§2) hiNSC colonies were trypsinized off of MEF feeder layers using TrypLE (Invitrogen) and then dissociated by manual pipetting. Cell suspensions were passaged through a 40- to […] cell strainer to remove larger aggregates. Dissociated hiNSCs were cultured on gelatin-coated plates in neurobasal media supplemented with 2% B27 (Invitrogen), 1% glutamax, and 1% antibiotic-antimycotic. For HSV infection, we used purified HSV-1 to directly infect hiNSCs at a range of MOIs (0.00001 to 1), which was calculated based on the starting virus concentration (2×10^7 PFU/ml) and initial seeding density.
as §1
Cells grown in tissue culture plates or in 3D scaffolds were fixed in 4% paraformaldehyde and washed with 1×phosphate-buffered saline (PBS). Samples were incubated with a blocking buffer consisting of PBS, 10% goat serum, and 0.1% Triton X-100. […]

[4] = tested on: APP, BACE1, PSEN1, and PSEN2; assay: qPCR expression of AD mediators (APP, BACE1, PSEN1, PSEN2) in HSV-1-infected hiNSCs; format: cell-based, human; conditions: HSV-1 MOI 0.0001
Description: as §2
as §1, with “VCV was added at day 0 (D0; concurrently with HSV-1 infection) or day 1 (D1; 24 hours after infection).” left out
(§3) Total RNA was isolated using the RNeasy Mini Kit (Qiagen). […] Quantitative reverse transcription PCR (qRT-PCR) was performed using SYBR Green and the CFX96 Real-Time PCR Detection System (Bio-Rad) and normalized against the housekeeping gene glyceraldehyde phosphate dehydrogenase. […]

HSV-1 = HSV-1 infection of hiNSCs with VCV treatment (HSV immunostaining, qPCR for HSV-UL29); format: cell-based, herpes simplex virus type 1
Description: as §2
as §1, with “VCV was added at day 0 (D0; concurrently with HSV-1 infection) or day 1 (D1; 24 hours after infection).” left out
as §3

hiNSCs [5] = assay: Conditioned media (CM) experiment: reactive glia formation in new hiNSCs, TUJ1 and GFAP immunostaining; format: cell-based, human; conditions: VCV in virus CM with fresh HSV-1; new hiNSCs cultured for 4 days
Description: Cells grown in tissue culture plates or in 3D scaffolds were fixed in 4% paraformaldehyde and washed with 1×phosphate-buffered saline (PBS). Samples were incubated with a blocking buffer consisting of PBS, 10% goat serum, and 0.1% Triton X-100. Primary antibodies were added to the blocking buffer and incubated with samples overnight at 4° C. The next day, samples were washed several times with PBS and incubated with a corresponding fluorescently conjugated secondary antibody in a blocking buffer for 1 hour at room temperature. Nuclei were counterstained with 4′,6-diamidino-2-phenylindole (Invitrogen).
Moreover, we aimed to understand whether HSV-1-secreted factors could cause gliosis even in the absence of infection (FIG. 7). CM were harvested and filtered from mock- or HSV-1-infected hiNSCs that had been cultured for 2 days. Fresh HSV-1 virus was added to CM in the absence or presence of antiviral treatment VCV, and new hiNSCs were cultured for 4 days. β-III tubulin (TUJ1) and GFAP immunostaining was performed to visualize neurons and glia, respectively.

HSV-1-infected hiNSCs [6] = assay: Gliosis and neuroinflammation (GFAP, TNFα) in HSV-1-infected hiNSCs, immunostaining and qPCR; format: cell-based, human
Description: as §2
as §1, with “VCV was added at day 0 (D0; concurrently with HSV-1 infection) or day 1 (D1; 24 hours after infection).” left out
as §3

Question: Which results are given for CC(C)[C@H](N)C(=O)OCCOCn1cnc2c(=O)[nH]c(N)nc21 [VCV, Valacyclovir HCl]?
Answer: HSV-1 latency associated transcript (LAT) (HSV-1-infected hiNSCs [1]): significant increase; PSEN2 expression (HSV-1-infected hiNSCs [1]): significant increase; glial fibrillary acidic protein (GFAP) expression (HSV-1-infected hiNSCs [1]): increase; effect on hiNSCs in the absence of virus (hiNSCs [2]): no discernible effect; average number of PLFs (HSV-1-infected hiNSCs [3]): significantly reduced; also recorded: decrease; average size (area) of PLFs (HSV-1-infected hiNSCs [3]): significantly reduced; also recorded: decrease; expression of AD mediators APP, BACE1, PSEN1 and PSEN2 (qPCR) ([4]; 200 μM VCV at D0): nearly rescued all markers back to control values; expression of AD mediators APP, BACE1, PSEN1 and PSEN2 (qPCR) ([4]; 200 μM VCV at D1 (24 hours after infection)): partial rescue; HSV-1 infection (HSV-1; 200 μM VCV at D0 (concurrently with HSV-1 infection), MOI 0.0001): almost completely abolished infection; HSV-1 infection (immunostaining and qPCR for HSV-UL29) (HSV-1; 200 μM VCV, both drug regimens (D0 or D1), HSV-1 MOI 0.0001, hiNSCs, HCl): significant decrease; also recorded: reduces HSV-1 infection; reactive glia formation (hiNSCs [5]): increased reactive glia formation; GFAP expression (immunostaining and qPCR) (HSV-1-infected hiNSCs [6]; 200 μM VCV at D0): almost completely restored; pro-inflammatory mediator TNFα (HSV-1-infected hiNSCs [6]; 200 μM VCV, both D0 and D1 dosing regimens): significantly reduced
